From ChEMBL document CHEMBL1641539 (Bioorg Med Chem Lett, 2011)

How the values were obtained:
[1] = target: Ephrin type-A receptor 5 (Homo sapiens) (UniProt P54756); test: Inhibition of human EphA5 at 10 uM after 60 mins by TR-FRET assay; details: values are per cent of control
[2] = target: Receptor tyrosine-protein kinase erbB-4 (Homo sapiens) (UniProt Q15303); test: Inhibition of human ErbB4 at 10 uM after 60 mins by TR-FRET assay; details: values are per cent of control
[3] = target: Mitogen-activated protein kinase 1 (Homo sapiens, UniProt P28482); test: Inhibition of human MAPK1 at 10 uM after 60 mins by TR-FRET assay; details: values are per cent of control
[4] = target: Ribosomal protein S6 kinase alpha-5 (Homo sapiens) (UniProt O75582); test: Inhibition of human MSK1 at 10 uM after 60 mins by TR-FRET assay; details: values are per cent of control
[5] = target: Mitogen-activated protein kinase 14 (Homo sapiens, UniProt Q16539); test: Inhibition of human SAPK2a at 10 uM after 60 mins by TR-FRET assay; details: values are per cent of control
Chain of Mitogen-activated protein kinase 14 (Q16539 whole entry): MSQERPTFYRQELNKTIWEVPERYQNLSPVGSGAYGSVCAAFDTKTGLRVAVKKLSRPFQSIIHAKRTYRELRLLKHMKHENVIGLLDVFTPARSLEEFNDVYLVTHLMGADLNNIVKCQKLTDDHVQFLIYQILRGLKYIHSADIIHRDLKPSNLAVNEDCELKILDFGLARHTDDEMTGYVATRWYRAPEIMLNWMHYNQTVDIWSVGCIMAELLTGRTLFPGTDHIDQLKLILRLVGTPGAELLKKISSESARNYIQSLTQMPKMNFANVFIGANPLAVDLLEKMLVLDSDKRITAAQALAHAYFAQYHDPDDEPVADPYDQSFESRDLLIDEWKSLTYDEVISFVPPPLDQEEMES

[6] = target: Mitogen-activated protein kinase 12 (Homo sapiens) (UniProt P53778); test: Inhibition of human SAPK3 at 10 uM after 60 mins by TR-FRET assay; details: values are per cent of control
Chain of Mitogen-activated protein kinase 12 (Homo sapiens) (P53778 whole entry): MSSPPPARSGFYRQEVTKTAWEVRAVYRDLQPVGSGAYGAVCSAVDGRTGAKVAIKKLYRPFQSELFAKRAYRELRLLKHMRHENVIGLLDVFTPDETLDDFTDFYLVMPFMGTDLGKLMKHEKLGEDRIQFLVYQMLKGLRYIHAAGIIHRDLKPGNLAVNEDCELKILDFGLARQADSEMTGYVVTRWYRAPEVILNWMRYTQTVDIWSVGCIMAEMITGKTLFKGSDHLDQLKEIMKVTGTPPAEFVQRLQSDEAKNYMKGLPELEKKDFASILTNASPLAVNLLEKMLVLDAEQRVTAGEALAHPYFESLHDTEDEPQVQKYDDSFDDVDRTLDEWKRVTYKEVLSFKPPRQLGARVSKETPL

[7] = target: Mitogen-activated protein kinase kinase kinase kinase 2 (Homo sapiens) (UniProt Q12851); test: Inhibition of human GCK at 10 uM after 60 mins by TR-FRET assay; values are per cent of control
Chain of Mitogen-activated protein kinase kinase kinase kinase 2 (Homo sapiens) (Q12851 whole entry): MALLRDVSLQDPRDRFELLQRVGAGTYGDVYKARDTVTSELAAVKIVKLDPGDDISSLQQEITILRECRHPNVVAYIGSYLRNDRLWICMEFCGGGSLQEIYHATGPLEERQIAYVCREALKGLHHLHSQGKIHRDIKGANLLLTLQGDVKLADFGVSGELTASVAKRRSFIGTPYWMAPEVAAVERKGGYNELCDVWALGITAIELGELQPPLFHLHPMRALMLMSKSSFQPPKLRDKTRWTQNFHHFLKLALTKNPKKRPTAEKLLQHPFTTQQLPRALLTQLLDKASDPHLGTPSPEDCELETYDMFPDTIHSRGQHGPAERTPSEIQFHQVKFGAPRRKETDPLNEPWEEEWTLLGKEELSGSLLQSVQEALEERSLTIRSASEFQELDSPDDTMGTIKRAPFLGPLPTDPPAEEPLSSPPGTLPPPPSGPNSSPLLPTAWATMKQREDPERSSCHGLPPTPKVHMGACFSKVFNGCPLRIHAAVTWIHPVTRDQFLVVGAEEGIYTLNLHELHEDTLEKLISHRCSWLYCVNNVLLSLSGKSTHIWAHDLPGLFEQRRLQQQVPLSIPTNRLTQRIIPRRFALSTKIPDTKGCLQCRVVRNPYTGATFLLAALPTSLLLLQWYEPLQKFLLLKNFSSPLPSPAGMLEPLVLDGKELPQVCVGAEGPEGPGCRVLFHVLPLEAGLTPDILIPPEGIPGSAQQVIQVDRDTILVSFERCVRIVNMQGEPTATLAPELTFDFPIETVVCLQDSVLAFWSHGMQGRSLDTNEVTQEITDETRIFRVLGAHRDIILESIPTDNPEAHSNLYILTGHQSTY

[8] = target: Serine/threonine-protein kinase Sgk1 (Homo sapiens) (UniProt O00141); test: Inhibition of human SGK at 10 uM after 60 mins by TR-FRET assay; values are per cent of control
[9] = target: Protein-tyrosine kinase 6 (Homo sapiens) (UniProt Q13882); test: Inhibition of human BRK at 10 uM after 60 mins by TR-FRET assay; values are per cent of control
Chain of Protein-tyrosine kinase 6 (Homo sapiens) (Q13882 whole entry, looked up): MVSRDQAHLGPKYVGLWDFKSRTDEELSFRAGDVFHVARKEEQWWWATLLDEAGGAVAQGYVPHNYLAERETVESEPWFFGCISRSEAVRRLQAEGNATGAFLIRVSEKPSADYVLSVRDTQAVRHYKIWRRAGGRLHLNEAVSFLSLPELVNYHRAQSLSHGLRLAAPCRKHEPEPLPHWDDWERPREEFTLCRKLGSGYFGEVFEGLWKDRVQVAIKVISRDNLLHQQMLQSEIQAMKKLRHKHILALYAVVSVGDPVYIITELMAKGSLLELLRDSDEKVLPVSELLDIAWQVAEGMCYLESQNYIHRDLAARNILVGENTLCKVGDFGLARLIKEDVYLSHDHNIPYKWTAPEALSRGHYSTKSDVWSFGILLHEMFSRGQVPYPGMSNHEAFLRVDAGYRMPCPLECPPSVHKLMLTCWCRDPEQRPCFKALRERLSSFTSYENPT

Rattus norvegicus = species on record: Rattus norvegicus; test: Inhibition of rat CaMK2 at 10 uM after 60 mins by TR-FRET assay; values are per cent of control
[10] = target: Serine/threonine-protein kinase STK11 (Homo sapiens) (UniProt Q15831); test: Inhibition of human LKB1 at 10 uM after 60 mins by TR-FRET assay; values are per cent of control
[11] = target: Serine/threonine-protein kinase Nek3 (Homo sapiens) (UniProt P51956); test: Inhibition of human NEK3 at 10 uM after 60 mins by TR-FRET assay; values are per cent of control
[12] = target: Serine/threonine-protein kinase Nek7 (Homo sapiens) (UniProt Q8TDX7); test: Inhibition of human NEK7 at 10 uM after 60 mins by TR-FRET assay; values are per cent of control
[13] = target: Serine/threonine-protein kinase TAO1 (Homo sapiens) (UniProt Q7L7X3); test: Inhibition of human TAO1 at 10 uM after 60 mins by TR-FRET assay; values are per cent of control
[14] = target: Death-associated protein kinase 3 (Homo sapiens) (UniProt O43293); test: Inhibition of human ZIPK at 10 uM after 60 mins by TR-FRET assay; values are per cent of control
[15] = target: Activin receptor type-1B (Homo sapiens) (UniProt P36896); test: Inhibition of human ALK4 at 10 uM after 60 mins by TR-FRET assay; values are per cent of control
[16] = target: Serine/threonine-protein kinase Chk2 (Homo sapiens) (UniProt O96017); test: Inhibition of human CHK2 at 10 uM after 60 mins by TR-FRET assay; values are per cent of control
[17] = target: Serine/threonine-protein kinase PAK 3 (Homo sapiens) (UniProt O75914); test: Inhibition of human PAK3 at 10 uM after 60 mins by TR-FRET assay; values are per cent of control
[18] = target: Serine/threonine-protein kinase D2 (Homo sapiens) (UniProt Q9BZL6); test: Inhibition of human PKD2 at 10 uM after 60 mins by TR-FRET assay; values are per cent of control
[19] = target: Ephrin type-A receptor 1 (Homo sapiens) (UniProt P21709); test: Inhibition of human EphA1 at 10 uM after 60 mins by TR-FRET assay; values are per cent of control
[20] = target: Ephrin type-B receptor 1 (Homo sapiens) (UniProt P54762); test: Inhibition of human EphB1 at 10 uM after 60 mins by TR-FRET assay; values are per cent of control
Chain of Ephrin type-B receptor 1 (Homo sapiens) (P54762 whole entry): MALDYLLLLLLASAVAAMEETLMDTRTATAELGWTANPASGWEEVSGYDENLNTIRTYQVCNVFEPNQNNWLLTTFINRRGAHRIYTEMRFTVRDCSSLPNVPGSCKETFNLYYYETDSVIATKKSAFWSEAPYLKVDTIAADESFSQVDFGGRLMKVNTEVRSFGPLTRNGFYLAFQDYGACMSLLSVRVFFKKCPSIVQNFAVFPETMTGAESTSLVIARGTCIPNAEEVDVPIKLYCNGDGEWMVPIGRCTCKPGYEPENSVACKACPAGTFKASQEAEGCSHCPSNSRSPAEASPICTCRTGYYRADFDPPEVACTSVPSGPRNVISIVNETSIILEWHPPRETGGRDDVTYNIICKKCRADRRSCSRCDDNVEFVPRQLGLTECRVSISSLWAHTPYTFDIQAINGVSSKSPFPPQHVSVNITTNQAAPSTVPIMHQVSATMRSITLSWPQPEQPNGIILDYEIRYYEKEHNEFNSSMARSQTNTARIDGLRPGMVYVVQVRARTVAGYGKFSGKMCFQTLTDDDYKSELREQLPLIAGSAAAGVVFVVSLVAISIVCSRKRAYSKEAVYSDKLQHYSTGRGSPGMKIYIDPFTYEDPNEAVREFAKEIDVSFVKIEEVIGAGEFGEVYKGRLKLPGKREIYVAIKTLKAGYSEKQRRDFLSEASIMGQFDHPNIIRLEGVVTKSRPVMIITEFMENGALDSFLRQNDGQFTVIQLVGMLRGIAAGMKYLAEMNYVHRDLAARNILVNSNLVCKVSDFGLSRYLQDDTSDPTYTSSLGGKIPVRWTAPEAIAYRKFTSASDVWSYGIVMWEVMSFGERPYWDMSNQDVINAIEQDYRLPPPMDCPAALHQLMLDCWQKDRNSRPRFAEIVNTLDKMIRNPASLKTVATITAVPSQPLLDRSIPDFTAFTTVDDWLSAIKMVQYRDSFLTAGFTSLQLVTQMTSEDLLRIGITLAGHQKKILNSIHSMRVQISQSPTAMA

[21] = target: Mast/stem cell growth factor receptor Kit (Homo sapiens) (UniProt P10721); test: Inhibition of human c-Kit at 10 uM after 60 mins by TR-FRET assay; values are per cent of control
[22] = target: Protein kinase C alpha type (Homo sapiens) (UniProt P17252); test: Inhibition of human PKCalpha at 10 uM after 60 mins by TR-FRET assay; values are per cent of control
[23] = target: Casein kinase I isoform gamma-2 (Homo sapiens) (UniProt P78368); test: Inhibition of human CK1gamma2 at 10 uM after 60 mins by TR-FRET assay; values are per cent of control
[24] = target: Proto-oncogene tyrosine-protein kinase Src (Homo sapiens) (UniProt P12931); test: Inhibition of human Src (1 to 530) at 10 uM after 60 mins by TR-FRET assay; values are per cent of control
Chain of Proto-oncogene tyrosine-protein kinase Src (Homo sapiens) (P12931 2-536 limits assumed): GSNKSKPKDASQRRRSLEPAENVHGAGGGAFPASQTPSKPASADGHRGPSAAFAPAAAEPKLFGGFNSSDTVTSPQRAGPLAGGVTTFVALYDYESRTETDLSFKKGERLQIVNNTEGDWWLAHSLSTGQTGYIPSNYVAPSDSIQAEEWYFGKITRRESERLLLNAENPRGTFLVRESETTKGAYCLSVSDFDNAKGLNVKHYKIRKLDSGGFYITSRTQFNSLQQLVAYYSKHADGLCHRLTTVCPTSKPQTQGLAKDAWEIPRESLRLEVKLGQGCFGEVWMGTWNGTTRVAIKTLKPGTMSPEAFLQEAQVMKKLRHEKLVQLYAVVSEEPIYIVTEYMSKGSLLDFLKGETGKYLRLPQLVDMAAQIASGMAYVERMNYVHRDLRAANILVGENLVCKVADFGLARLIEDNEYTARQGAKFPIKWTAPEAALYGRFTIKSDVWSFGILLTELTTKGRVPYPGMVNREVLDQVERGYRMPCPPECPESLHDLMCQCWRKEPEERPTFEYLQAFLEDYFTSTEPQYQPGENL

[25] = tested on: Tyrosine-protein kinase BTK (Homo sapiens), Q06187 [R28H]; test: Inhibition of human BTK R28H mutant at 10 uM after 60 mins by TR-FRET assay; values are per cent of control
[26] = tested on: Tyrosine-protein kinase ABL1 (Homo sapiens), P00519 [M351T]; test: Inhibition of human Abl M351T mutant at 10 uM after 60 mins by TR-FRET assay; values are per cent of control
[27] = tested on: Receptor-type tyrosine-protein kinase FLT3 (Homo sapiens), P36888 [D835Y]; test: Inhibition of human Flt3 D835Y mutant at 10 uM after 60 mins by TR-FRET assay; values are per cent of control
[28] = tested on: Serine/threonine-protein kinase Chk2 (Homo sapiens), O96017 [R145W]; test: Inhibition of human CHK2 R145W mutant at 10 uM after 60 mins by TR-FRET assay; values are per cent of control

Chain of Receptor tyrosine-protein kinase erbB-4 (Homo sapiens) (Q15303 whole entry): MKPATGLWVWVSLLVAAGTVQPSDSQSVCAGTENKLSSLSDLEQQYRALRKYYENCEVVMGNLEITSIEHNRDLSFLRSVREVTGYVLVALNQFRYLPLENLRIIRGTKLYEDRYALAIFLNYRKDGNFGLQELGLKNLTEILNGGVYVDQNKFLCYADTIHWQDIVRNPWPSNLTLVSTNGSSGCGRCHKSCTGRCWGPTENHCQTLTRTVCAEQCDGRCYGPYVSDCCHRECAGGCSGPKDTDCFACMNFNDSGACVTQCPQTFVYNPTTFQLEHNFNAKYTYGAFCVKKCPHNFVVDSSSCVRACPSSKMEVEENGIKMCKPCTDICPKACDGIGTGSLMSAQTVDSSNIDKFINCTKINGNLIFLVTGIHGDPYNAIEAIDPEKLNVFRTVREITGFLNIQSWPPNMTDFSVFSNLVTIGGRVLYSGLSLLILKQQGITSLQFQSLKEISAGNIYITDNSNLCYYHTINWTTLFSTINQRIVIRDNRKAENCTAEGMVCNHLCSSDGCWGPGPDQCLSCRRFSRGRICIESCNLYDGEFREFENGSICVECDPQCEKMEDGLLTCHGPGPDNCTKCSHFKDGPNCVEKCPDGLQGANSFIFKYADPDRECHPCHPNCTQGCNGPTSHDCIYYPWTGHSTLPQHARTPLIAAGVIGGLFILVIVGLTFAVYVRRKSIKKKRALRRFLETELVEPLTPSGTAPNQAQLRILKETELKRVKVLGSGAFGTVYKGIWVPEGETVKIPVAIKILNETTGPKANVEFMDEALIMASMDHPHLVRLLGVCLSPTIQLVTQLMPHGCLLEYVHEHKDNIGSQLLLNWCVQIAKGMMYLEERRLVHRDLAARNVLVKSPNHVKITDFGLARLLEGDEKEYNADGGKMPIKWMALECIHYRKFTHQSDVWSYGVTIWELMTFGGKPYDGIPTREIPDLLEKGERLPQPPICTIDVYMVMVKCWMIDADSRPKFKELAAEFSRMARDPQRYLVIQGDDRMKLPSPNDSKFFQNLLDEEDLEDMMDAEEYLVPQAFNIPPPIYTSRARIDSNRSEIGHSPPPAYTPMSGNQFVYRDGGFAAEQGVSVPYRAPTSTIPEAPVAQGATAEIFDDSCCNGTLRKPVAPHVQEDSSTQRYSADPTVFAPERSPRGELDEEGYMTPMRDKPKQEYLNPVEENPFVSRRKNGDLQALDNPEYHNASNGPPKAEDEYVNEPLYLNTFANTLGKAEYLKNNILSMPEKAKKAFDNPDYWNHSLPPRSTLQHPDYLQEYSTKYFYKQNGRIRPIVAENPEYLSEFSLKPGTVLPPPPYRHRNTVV

residual activity [1]: 110%
residual activity [2]: 99%
residual activity [3]: 109%
residual activity [4]: 114%
residual activity [5]: 71%
residual activity [6]: 110%
residual activity [7]: 103%
residual activity [8]: 109%
residual activity [9]: 101%
residual activity (Rattus norvegicus): 110%
residual activity [10]: 123%
residual activity [11]: 118%
residual activity [12]: 112%
residual activity [13]: 104%
residual activity [15]: 112%
residual activity [16]: 116%
residual activity [17]: 99%
residual activity [18]: 110%
residual activity [19]: 103%
residual activity [20]: 79%
residual activity [21]: 108%
residual activity [22]: 93%
residual activity [23]: 99%
residual activity [24]: 106%
residual activity [25]: 113%
residual activity [26]: 109%
residual activity [27]: 99%
residual activity [28]: 108%
SMILES: S=c1[nH]nc(-c2ccncc2)n1-c1ccc2ccccc2c1
residual activity [14]: 103%
